# Experimental data as given in patent US12110295B2, “WD40 repeat domain protein 5 (WDR5) degradation/disruption compounds and methods of use” (Icahn School of Medicine at Mount Sinai, priority 2018, dated 2024).
# Target: WDR5 (Homo sapiens, UniProt P61964)
# Assay: Screening of putative WDR5 degraders by Western blot in MV4;11 and/or MIAPACA2 cells
# Format: cell-based
# Design: After WDR5 degrader treatment, cells were collected and lysed; endogenous in cells; host or cells: MV4;11 and/or MIAPACA2
# Settings: summary of screening, FIGS. 6-10
# Method: MV4;11 cells were treated with DMSO or indicated compounds at 0.1 μM and 0.5 μM for 18 hours. […]. MIAPACA2 cells were treated with DMSO or indicated compounds at 0.5 μM and 1.0 μM for 18 hours.
# MIAPACA2 cells were treated with DMSO or indicated compounds at 0.1 μM and 0.5 μM for 18 hours.
# MIAPACA2 cells were treated with DMSO or indicated compounds at 0.5 μM and 1.0 μM or at 1.0 μM and 10 μM for 18 hours.
# MV4;11 cells were treated with DMSO or indicated compounds at 0.1 μM and 1.0 μM for 18 hours.
# WDR5 degraders were dissolved in DMSO and DMSO with no degraders was used as the control. 1×10^6 MV4;11 cells or 1×10^5 MIAPACA2 or 2×10^5 Hela cells were seeded in 2 mL medium for each well in […].
# For prescreening of all the compounds, each test compound was added to the medium at indicated concentrations. After 18 h treatment, cells were collected.
# After WDR5 degrader treatment, cells were collected and lysed. Total cell lysates were used for western blot. The following primary antibodies were used: WDR5 (Santa Cruz), vinculin (Cell Signaling Technology), tubulin (Cell Signaling Technology), GAPDH (Santa Cruz). Blots were imaged using fluorescence-labeled secondary antibodies on ChemiDoc™ Imaging Systems.
row,SMILES,effective degradation of WDR5 in MV4;11 and/or MIAPACA2 cells
1,"Cc1ncsc1-c1ccc(CNC(=O)[C@@H]2C[C@@H](O)CN2C(=O)[C@@H](NC(=O)COCCOCC(=O)N2CCN(c3ncc(-c4cc(NC(=O)c5ccc(F)cc5C(F)(F)F)c(N5C[C@@H](C)N(C)[C@@H](C)C5)cc4F)cn3)CC2)C(C)(C)C)cc1 [XF078-101, (2S,4R)-1-((S)-2-(2-(2-(2-(4-(5-(2-fluoro-5-(4-fluoro-2-(trifluoromethyl)benzamido)-4-((3S,5R)-3,4,5-trimethylpiperazin-1-yl)phenyl)pyrimidin-2-yl)piperazin-1-yl)-2-oxoethoxy)ethoxy)acetamido)-3,3-dimethylbutanoyl)-4-hydroxy-N-(4-(4-methylthiazol-5-yl)benzyl)pyrrolidine-2-carboxamide]",able to effectively degrade WDR5
2,"Cc1ncsc1-c1ccc(CNC(=O)[C@@H]2C[C@@H](O)CN2C(=O)[C@@H](NC(=O)CCCCCC(=O)N2CCN(c3ncc(-c4cc(NC(=O)c5ccc(F)cc5C(F)(F)F)c(N5C[C@@H](C)N(C)[C@@H](C)C5)cc4F)cn3)CC2)C(C)(C)C)cc1 [XF078-111, (2S,4R)-1-((S)-2-(7-(4-(5-(2-fluoro-5-(4-fluoro-2-(trifluoromethyl)benzamido)-4-((3S,5R)-3,4,5-trimethylpiperazin-1-yl)phenyl)pyrimidin-2-yl)piperazin-1-yl)-7-oxoheptanamido)-3,3-dimethylbutanoyl)-4-hydroxy-N-(4-(4-methylthiazol-5-yl)benzyl)pyrrolidine-2-carboxamide]",able to effectively degrade WDR5
3,"C[C@@H]1CN(c2cc(F)c(C3=CCN(c4ncc(CN5CCN(C(=O)CCNc6cccc7c6C(=O)N(C6CCC(=O)NC6=O)C7=O)CC5)cn4)CC3)cc2NC(=O)c2c[nH]c(=O)cc2C(F)(F)F)C[C@H](C)N1C (stereo partly drawn) [XF078-150, N-(5-(1-(5-((4-(3-((2-(2,6-dioxopiperidin-3-yl)-1,3-dioxoisoindolin-4-yl)amino)propanoyl)piperazin-1-yl)methyl)pyrimidin-2-yl)-1,2,3,6-tetrahydropyridin-4-yl)-4-fluoro-2-((3S,5R)-3,4,5-trimethylpiperazin-1-yl)phenyl)-6-oxo-4-(trifluoromethyl)-1,6-dihydropyridine-3-carboxamide]",able to effectively degrade WDR5
4,"Cc1ncsc1-c1ccc(CNC(=O)[C@@H]2C[C@@H](O)CN2C(=O)[C@@H](NC(=O)CCCCCC(=O)N2CC=C(c3cc(NC(=O)c4c[nH]c(=O)cc4C(F)(F)F)c(N4C[C@@H](C)N(C)[C@@H](C)C4)cc3F)CC2)C(C)(C)C)cc1 [XF078-42, N-(4-fluoro-5-(1-(7-(((S)-1-((2S,4R)-4-hydroxy-2-((4-(4-methylthiazol-5-yl)benzyl)carbamoyl)pyrrolidin-1-yl)-3,3-dimethyl-1-oxobutan-2-yl)amino)-7-oxoheptanoyl)-1,2,3,6-tetrahydropyridin-4-yl)-2-((3S,5R)-3,4,5-trimethylpiperazin-1-yl)phenyl)-6-oxo-4-(trifluoromethyl)-1,6-dihydropyridine-3-carboxamide]",able to effectively degrade WDR5
5,"Cc1ncsc1-c1ccc(CNC(=O)[C@@H]2C[C@@H](O)CN2C(=O)[C@@H](NC(=O)CCCCCCCCCCCCC(=O)NCCN2CCN(Cc3cccc(-c4ccc(N5CCN(C)CC5)c(NC(=O)c5c[nH]c(=O)cc5C(F)(F)F)c4)c3)CC2)C(C)(C)C)cc1 [XF050-162, N^1-((S)-1-((2S,4R)-4-hydroxy-2-((4-(4-methylthiazol-5-yl)benzyl)carbamoyl)pyrrolidin-1-yl)-3,3-dimethyl-1-oxobutan-2-yl)-N^14-(2-(4-((4′-(4-methylpiperazin-1-yl)-3′-(6-oxo-4-(trifluoromethyl)-1,6-dihydropyridine-3-carboxamido)-[1,1′-biphenyl]-3-yl)methyl)piperazin-1-yl)ethyl)tetradecanediamide]",able to effectively degrade WDR5
6,"Cc1ncsc1-c1ccc(CNC(=O)[C@@H]2C[C@@H](O)CN2C(=O)[C@@H](NC(=O)CCCCC(=O)N2CCN(Cc3cnc(N4CC=C(c5cc(NC(=O)c6c[nH]c(=O)cc6C(F)(F)F)c(N6C[C@@H](C)N(C)[C@@H](C)C6)cc5F)CC4)nc3)CC2)C(C)(C)C)cc1 [XF078-143, N-(4-fluoro-5-(1-(5-((4-(6-(((S)-1-((2S,4R)-4-hydroxy-2-((4-(4-methylthiazol-5-yl)benzyl)carbamoyl)pyrrolidin-1-yl)-3,3-dimethyl-1-oxobutan-2-yl)amino)-6-oxohexanoyl)piperazin-1-yl)methyl)pyrimidin-2-yl)-1,2,3,6-tetrahydropyridin-4-yl)-2-((3S,5R)-3,4,5-trimethylpiperazin-1-yl)phenyl)-6-oxo-4-(trifluoromethyl)-1,6-dihydropyridine-3-carboxamide]",able to effectively degrade WDR5
7,"C[C@@H]1CN(c2cc(F)c(-c3cnc(N4CCN(C(=O)CCOCCOCCOCCNc5cccc6c5C(=O)N(C5CCC(=O)NC5=O)C6=O)CC4)nc3)cc2NC(=O)c2ccc(F)cc2C(F)(F)F)C[C@H](C)N1C (stereo partly drawn) [XF078-125, N-(5-(2-(4-(3-(2-(2-(2-((2-(2,6-dioxopiperidin-3-yl)-1,3-dioxoisoindolin-4-yl)amino)ethoxy)ethoxy)ethoxy)propanoyl)piperazin-1-yl)pyrimidin-5-yl)-4-fluoro-2-((3S,5R)-3,4,5-trimethylpiperazin-1-yl)phenyl)-4-fluoro-2-(trifluoromethyl)benzamide]",able to effectively degrade WDR5
8,"C[C@@H]1CN(c2cc(F)c(-c3cnc(N4CCN(C(=O)CCOCCOCCOCCOCCOCCNc5cccc6c5C(=O)N(C5CCC(=O)NC5=O)C6=O)CC4)nc3)cc2NC(=O)c2ccc(F)cc2C(F)(F)F)C[C@H](C)N1C (stereo partly drawn) [XF078-127, N-(5-(2-(4-(1-((2-(2,6-dioxopiperidin-3-yl)-1,3-dioxoisoindolin-4-yl)amino)-3,6,9,12,15-pentaoxaoctadecan-18-oyl)piperazin-1-yl)pyrimidin-5-yl)-4-fluoro-2-((3S,5R)-3,4,5-trimethylpiperazin-1-yl)phenyl)-4-fluoro-2-(trifluoromethyl)benzamide]",able to effectively degrade WDR5
9,"Cc1ncsc1-c1ccc(CNC(=O)[C@@H]2C[C@@H](O)CN2C(=O)[C@@H](NC(=O)CCCCC(=O)NCCN2CCN(Cc3ccc(F)c(-c4ccc(N5C[C@@H](C)N(C)[C@@H](C)C5)c(NC(=O)c5c[nH]c(=O)cc5C(F)(F)F)c4)c3)CC2)C(C)(C)C)cc1 [XF078-12, N^1-(2-(4-((6-fluoro-3′-(6-oxo-4-(trifluoromethyl)-1,6-dihydropyridine-3-carboxamido)-4′-((3S,5R)-3,4,5-trimethylpiperazin-1-yl)-[1,1′-biphenyl]-3-yl)methyl)piperazin-1-yl)ethyl)-N^6-((S)-1-((2S,4R)-4-hydroxy-2-((4-(4-methylthiazol-5-yl)benzyl)carbamoyl)pyrrolidin-1-yl)-3,3-dimethyl-1-oxobutan-2-yl)adipamide]",able to effectively degrade WDR5
10,"C[C@@H]1CN(c2ccc(-c3ccc(C(=O)NCCCCCCCCNc4cccc5c4C(=O)N(C4CCC(=O)NC4=O)C5=O)cc3F)cc2NC(=O)c2c[nH]c(=O)cc2C(F)(F)F)C[C@H](C)N1C (stereo partly drawn) [XF056-186, N-(4′-((8-((2-(2,6-dioxopiperidin-3-yl)-1,3-dioxoisoindolin-4-yl)amino)octyl)carbamoyl)-2′-fluoro-4-((3R,5S)-3,4,5-trimethylpiperazin-1-yl)-[1,1′-biphenyl]-3-yl)-6-oxo-4-(trifluoromethyl)-1,6-dihydropyridine-3-carboxamide]",able to effectively degrade WDR5
11,"Cc1ncsc1-c1ccc(CNC(=O)[C@@H]2C[C@@H](O)CN2C(=O)[C@@H](NC(=O)CCCCCCCC(=O)N2CC=C(c3cc(NC(=O)c4c[nH]c(=O)cc4C(F)(F)F)c(N4C[C@@H](C)N(C)[C@@H](C)C4)cc3F)CC2)C(C)(C)C)cc1 [XF078-44, N-(4-fluoro-5-(1-(9-(((S)-1-((2S,4R)-4-hydroxy-2-((4-(4-methylthiazol-5-yl)benzyl)carbamoyl)pyrrolidin-1-yl)-3,3-dimethyl-1-oxobutan-2-yl)amino)-9-oxononanoyl)-1,2,3,6-tetrahydropyridin-4-yl)-2-((3S,5R)-3,4,5-trimethylpiperazin-1-yl)phenyl)-6-oxo-4-(trifluoromethyl)-1,6-dihydropyridine-3-carboxamide]",able to effectively degrade WDR5
12,"C[C@@H]1CN(c2ccc(-c3cc(CN4CCN(CCNC(=O)CCOCCOCCOCCOCCNc5cccc6c5C(=O)N(C5CCC(=O)NC5=O)C6=O)CC4)ccc3F)cc2NC(=O)c2c[nH]c(=O)cc2C(F)(F)F)C[C@H](C)N1C (stereo partly drawn) [XF078-28, N-(5′-((4-(1-((2-(2,6-dioxopiperidin-3-yl)-1,3-dioxoisoindolin-4-yl)amino)-15-oxo-3,6,9,12-tetraoxa-16-azaoctadecan-18-yl)piperazin-1-yl)methyl)-2′-fluoro-4-((3S,5R)-3,4,5-trimethylpiperazin-1-yl)-[1,1′-biphenyl]-3-yl)-6-oxo-4-(trifluoromethyl)-1,6-dihydropyridine-3-carboxamide]",able to effectively degrade WDR5
